Test results as given in US10016517B2, “Bioactive amphiphilic polymer stabilized nanoparticles with enhanced stability and activity” (RUTGERS, THE STATE UNIVERSITY OF NEW JERSEY, priority 2011, dated 2018).

Tested on: human MDMs
Experiment: DiO oxLDL uptake by PBMC derived macrophages
Assay type: cell-based
Details: MDMs co-incubated with PEG-b-PLA NPs loaded with M12 and DiO oxLDL
Method: Peripheral blood mononuclear cells (PBMC) were isolated from human buffy coats (Blood Center of New Jersey; East Orange, N.J.) by Ficoll-Paque (1.077 g mL^−1; GE Healthcare) density gradient. Monocytes were selected by plate adherence after two hours by washing thrice with PBS and cultured for 7 days in RPMI 1640 (ATCC) with 10% FBS, 1% Penicillin/Streptomycin and 50 ng mL^−1 M-CSF for differentiation into macrophages (MDM). Media was exchanged every two to three days. Primary Human Coronary Artery Smooth Muscle Cells (CASMC) (Lonza) between passages 3-6 were cultured in SM-GM2 media (Lonza). CASMC were plated on Type I Collagen coated wells for cytotoxicity experiments. […]
Human MDMs were co-incubated with 5 μg mL^−1 of 3,3′-dioctadecyloxacarbocyanine (DiO) labeled oxLDL (Kalen Biomedical; Montgomery Village, Md.) and either NPs or micelles for 24 h in the presence of 0 (serum-free), 5, 10 or 20% FBS. […] Cells were fixed and counterstained with Hoechst 33342 before epifluorescent imaging on a Nikon Eclipse TE2000-S. Uptake of oxLDL in MDMs was quantified by ImageJ and normalized to cell count. Analyzed data were from three independent experiments performed in triplicate.
Inhibition of oxLDL uptake in human MDMs by AM NPs and analogous micellar systems were determined (FIG. 3B-C). […] Uptake of oxLDL in MDMs was determined by ImageJ analysis of epifluorescent images. […]

mucic acid modified with lauroyl groups [M12]
therapeutic efficacy towards inhibiting oxLDL uptake: no therapeutic efficacy
